Assay results: patent US20250170267A1, “ANTIBODY-DRUG CONJUGATE PRECURSOR AND INTERMEDIATE FOR SYNTHESIS THEREOF” (UBE Corporation, priority 2022, published 2025)
pIC50: −log10 of the molar value. Numbered stars: 1 amine (or outer) side, 2 acyl side, 3 side chain; on linkers, the order of the positions; unused ones are H or OH. Square brackets hold non-standard residues; d marks the D form. Peptide text beside a SMILES is read from it. * marks the point of attachment. Exatecan = CC[C@@]1(O)C(=O)OCc2c1cc1n(c2=O)Cc2c-1nc1cc(F)c(C)c3c1c2[C@@H](N*)CC3; Hexanoyl(6-maleimido) = O=C1C=CC(=O)N1CCCCCC(=O)*; NHCH2OCH2CO = O=C(COCN[*:1])[*:2]; hSer(lactone) = O=C1OCC[C@@H]1N*

Legend:
[1] = Retention time in HPLC (index of hydrophilicity); assay type: physicochemical; details: Table 6 (eribulin precursors); BEH C18, 0.1% formic acid/acetonitrile gradient, 40° C.
Description: As an index of hydrophilicity of the Examples, the retention time (RT) in HPLC analysis was measured, and compared.
Device: LCMS2020 system Shimadzu Corporation
Column: Acquity UPLC (registered trademark) BEH C18 (2.1×50 mm, 1.7 μm)_Waters
Eluent: Solution A: 0.1% aqueous solution of formic acid, Solution B: 0.1% solution of formic acid in acetonitrile

human topoisomerase I = target: T1, human topoisomerase I (Homo sapiens, UniProt P11387); assay: Topoisomerase I activity inhibition test; assay type: biochemical; details: supercoiled plasmid DNA, 37° C., 60 minutes
T1 construct: purchased Sigma T9069
T1 sequence (P11387 1-765): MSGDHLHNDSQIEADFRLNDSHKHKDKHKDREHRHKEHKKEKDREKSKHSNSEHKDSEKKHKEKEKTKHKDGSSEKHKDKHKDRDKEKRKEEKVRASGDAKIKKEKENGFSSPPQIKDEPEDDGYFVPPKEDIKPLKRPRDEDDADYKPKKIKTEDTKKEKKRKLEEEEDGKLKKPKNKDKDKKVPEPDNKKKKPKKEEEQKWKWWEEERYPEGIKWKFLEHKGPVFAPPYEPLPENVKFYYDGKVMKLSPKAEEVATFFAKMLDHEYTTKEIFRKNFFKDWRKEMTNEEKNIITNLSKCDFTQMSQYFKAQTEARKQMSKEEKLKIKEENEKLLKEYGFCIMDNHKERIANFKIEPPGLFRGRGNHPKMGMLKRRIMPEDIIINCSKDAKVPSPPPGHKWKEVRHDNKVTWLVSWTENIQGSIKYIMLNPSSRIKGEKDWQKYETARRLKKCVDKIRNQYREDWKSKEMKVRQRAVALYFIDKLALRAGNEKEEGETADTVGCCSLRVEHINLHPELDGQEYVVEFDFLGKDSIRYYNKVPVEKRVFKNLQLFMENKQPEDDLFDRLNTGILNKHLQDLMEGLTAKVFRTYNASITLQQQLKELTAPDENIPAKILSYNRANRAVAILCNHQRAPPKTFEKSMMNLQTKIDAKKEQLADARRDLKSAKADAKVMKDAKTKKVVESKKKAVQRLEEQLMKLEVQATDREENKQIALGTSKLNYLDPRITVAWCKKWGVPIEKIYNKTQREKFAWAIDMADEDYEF
Description: For measuring topoisomerase I activity inhibitory actions, Human DNA Topoisomerase I Assay Kit (manufactured by ProFoldin, HRA100K) was used. A human topoisomerase I (manufactured by Sigma, T9069) was added to a Tris-HCl buffer containing KCl, DTT, MgCl2, EDTA, and BSA to prepare a reaction solution. The reaction solution (35.2 μL) and a test compound solution (4.4 μL) prepared by an aqueous solution containing 10% DMSO were mixed in a 1.5 mL microtube, and the resulting mixture was reacted at 37° C. for 10 minutes. Subsequently, a supercoiled plasmid DNA (4.4 μL) was added thereto, and the resulting mixture was reacted at 37° C. for 60 minutes. After the reaction, the solution was added to a 96 well plate (manufactured by Corning Inc., 3904) at 40 μL/well, and a Dye H19 solution (250 μL) diluted 10 times with the buffer included with the kit was added thereto. A microplate reader (Infinite F500, manufactured by TECAN) was used to measure the fluorescence intensity (excitation wavelength: 485 nm, detection wavelength: 535 nm) of each well.
The topoisomerase I activity inhibition rate (%) was calculated by the following equation.

human liver Cathepsin B = target: T2, human liver Cathepsin B (Homo sapiens, UniProt P07858); assay: Metabolism test using human liver Cathepsin B; assay type: in vitro ADME; details: 37° C., 24 hours, released drug, LC-MS/MS
T2 construct: human liver Cathepsin B (manufactured by Sigma-Aldrich Co. LLC, Cat No. C8571 25 μg/vial); purchased Sigma-Aldrich Co. LLC C8571; host or cells: human liver
Description: To human liver Cathepsin B (manufactured by Sigma-Aldrich Co. LLC, Cat No. C8571 25 μg/vial)(corresponding to 400 Unit/mL)(5 μL), X10 Catabolic Buffer (manufactured by SEKISUI-Xenotech, LLC., K5200)(10 μL), 2.5 mM Bovine Serum Albumin (manufactured by FUJIFILM Wako Pure Chemical Corporation, Cat No. 012-15093)(5 μL), and distilled water (manufactured by FUJIFILM Wako Pure Chemical Corporation, for HPLC)(55 μL) was added 1.2 μM test compound (antibody-drug conjugate prepared in ADC Production examples)(25 μL) dissolved in PBS to prepare a reaction solution. After the reaction solution was incubated at 37° C. for 24 hours, “an antitumor drug molecule or an analog thereof, or a derivative thereof” released from the antibody-drug conjugate into the reaction solution was quantified by LC-MS/MS (high performance liquid chromatography/mass spectrometer system) under the following conditions. LC-MS/MS analysis conditions
(§1) LC: LC20 or LC30 HPLC system manufactured by Shimadzu Corporation
(§2) Column: Phenomenex Kinetex C18 (50×2.1 mm, 2.6 μm)
(§3) Column temperature: 40° C.
(§4) Mobile phase A: 0.1% aqueous solution of formic acid, Mobile phase B: 0.1% solution of formic acid in a mixture of 50% acetonitrile/methanol
(§5) Mode: Positive or Negative
(§6) The release rate (%) of drug was calculated by the following equation.

human liver lysosome = assay: Metabolism test using human liver lysosomal fraction; assay type: in vitro ADME; details: 37° C., 24 hours, released drug, LC-MS/MS
Description: To a reaction composition solution (X10 Catabolic Buffer (manufactured by SEKISUI-Xenotech, LLC., K5200))(60 μL) in which human liver lysosome (manufactured by SEKISUI-Xenotech, LLC., Cat No. H610.L 2.5 mg/mL)(corresponding to 0.125 mg of protein) was suspended and distilled water (manufactured by FUJIFILM Wako Pure Chemical Corporation, for HPLC)(10 μL) was added 1.2 μM test compound (antibody-drug conjugate produced in ADC Production examples)(25 μL) dissolved in PBS to prepare a reaction solution. After the reaction solution was incubated at 37° C. for 24 hours, “an antitumor drug molecule or an analog thereof, or a derivative thereof” released from the antibody-drug conjugate into the reaction solution was quantified by LC-MS/MS (high performance liquid chromatography/mass spectrometer system) under the following conditions. LC-MS/MS analysis conditions
as §1, §2, §3, §4, §5, §6

[2] = Pharmacokinetic test (serum trastuzumab residual rate); assay type: in vivo; details: female BALB/c mouse, intravenous; 3 days vs 5 minutes after administration
Source text: After a prescribed time period, the blood was collected from the jugular vein or abdominal vein, and centrifuged to prepare a serum. The resulting serum was cryopreserved until the measurement.

SMILES: C=C1C[C@@H]2CC[C@@]34C[C@H]5O[C@H]6[C@@H](O3)[C@H]3O[C@H](CC[C@@H]3O[C@H]6[C@H]5O4)CC(=O)C[C@@H]3[C@@H](OC)[C@@H](C[C@@H](CNC(=O)OCc4ccc(NC(=O)[C@H](CCCNC(N)=O)NC(=O)[C@@H](NC(=O)[C@H](CC(=O)N[C@H]5CCOC5=O)NC(=O)CCOCCOCCOCCOCCNC(=O)[C@H](CNC(=O)CCP(=O)(O)O)N5C(=O)C=CC5=O)C(C)C)cc4)OP(=O)(O)O)O[C@H]3C[C@H]3O[C@@H](CC[C@@H]1O2)C[C@@H](C)C3=C [Example 26]
- Retention time in HPLC measurement [1]: 0.91 min

SMILES: CC[C@@]1(O)C(=O)OCc2c1cc1n(c2=O)Cc2c-1nc1cc(F)c(C)c3c1c2[C@@H](NC(=O)CCO)CC3 [Example U-002]
- pIC50 (human topoisomerase I): ≥ 4.82

SMILES: C=C1C[C@@H]2CC[C@@]34C[C@H]5O[C@H]6[C@@H](O3)[C@H]3O[C@H](CC[C@@H]3O[C@H]6[C@H]5O4)CC(=O)C[C@@H]3[C@@H](OC)[C@@H](C[C@H](O)CNC(=O)OCc4ccc(NC(=O)[C@H](CCCNC(N)=O)NC(=O)[C@@H](NC(=O)[C@H](CC(=O)N[C@H]5CCOC5=O)NC(=O)CCOCCOCCOP(=O)(O)OCCNC(=O)[C@H](CNC(=O)CCP(=O)(O)O)N5C(=O)C=CC5=O)C(C)C)cc4)O[C@H]3C[C@H]3O[C@@H](CC[C@@H]1O2)C[C@@H](C)C3=C [Example 17]
- Release rate (%) of drug from ADC (human liver Cathepsin B): 58%
- Release rate (%) of drug from ADC (human liver lysosome): 56%
- Retention time in HPLC measurement [1]: 1.04 min

SMILES: CC[C@@]1(O)C(=O)OCc2c1cc1n(c2=O)Cc2c-1nc1cc(F)c(C)c3c1c2[C@@H](NC(=O)Cc1cccc(N)c1)CC3 [Example U-006]
- pIC50 (human topoisomerase I): ≥ 4.82

SMILES: CC[C@@]1(O)C(=O)OCc2c1cc1n(c2=O)Cc2c-1nc1cc(F)c(C)c3c1c2[C@@H](NC(C)=O)CC3 [Example U-001]
- pIC50 (human topoisomerase I): ≥ 4.82

SMILES: CC[C@@]1(O)C(=O)OCc2c1cc1n(c2=O)Cc2c-1nc1cc(F)c(C)c3c1c2[C@@H](NC(=O)COCNC(=O)CNC(=O)[C@H](Cc1ccccc1)NC(=O)CNC(=O)CNC(=O)[C@H](CC(=O)N[C@H]1CCOC1=O)NC(=O)CCCCCN1C(=O)C=CC1=O)CC3 [Example 13] ({Hexanoyl(6-maleimido)}-D(hSer(lactone))GGFG[NHCH2OCH2CO]-Exatecan)
- Serum trastuzumab residual rate after 3 days from administration (%) [2]: 25%
- Release rate (%) of drug from ADC (human liver Cathepsin B): 24%
- Release rate (%) of drug from ADC (human liver lysosome): 76%

SMILES: CC[C@@]1(O)C(=O)OCc2c1cc1n(c2=O)Cc2c-1nc1cc(F)c(C)c3c1c2[C@@H](NC(=O)c1ccc(N)cc1)CC3 [Example U-005]
- pIC50 (human topoisomerase I): ≥ 4.82
